Measured values published in patent US9938222B2 (BRISTOL-MYERS SQUIBB COMPANY, priority 2014, dated 2018).

These compounds were tested against human GPR120 (Homo sapiens (Human), UniProt Q5NUL3) (assay: GPR120 pERK AlphaScreen SureFire Assay (human GPR120 pERK assay)). Details: CHO cells stably transfected with short form of human GPR120.
Sequence of human GPR120 (Q5NUL3 whole entry): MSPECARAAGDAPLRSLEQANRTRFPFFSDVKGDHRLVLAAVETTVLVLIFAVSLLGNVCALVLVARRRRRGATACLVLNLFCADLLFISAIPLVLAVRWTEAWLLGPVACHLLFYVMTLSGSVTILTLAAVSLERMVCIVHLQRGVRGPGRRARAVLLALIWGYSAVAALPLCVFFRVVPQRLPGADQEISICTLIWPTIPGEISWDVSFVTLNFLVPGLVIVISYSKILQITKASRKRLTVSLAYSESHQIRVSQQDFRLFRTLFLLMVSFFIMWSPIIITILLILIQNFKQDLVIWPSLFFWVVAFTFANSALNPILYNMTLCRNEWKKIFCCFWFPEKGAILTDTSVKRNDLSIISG
Assay type: cell-based
How it was run: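 CHOA12 cells stably expressing short-form human GPR120, serum-starved 2 h, then stimulated 7 min at 37° C with compound (33.33 μM to 0.56 nM, 11-point). Phospho-ERK1/2 read by AlphaScreen SureFire in lysates. Activation scaled between DMSO and 50 μM linolenic acid; EC50 from a 4-parameter logistic fit.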
`CC(C)Oc1ccc(F)c(-c2ccc(CC[C@H]3C[C@H]3C(=O)O)cc2)c1` (racemic) [Example 15, (Cis)-(+/−)-2-(2-(2′-fluoro-5′-isopropoxy-[1,1′-biphenyl]-4-yl)ethyl) cyclopropanecarboxylic acid] showed an EC50 of 1690 nM.
`CC(C)Oc1cc(F)c(F)c(-c2ccc(OC[C@H]3C[C@@H]3C(=O)O)c(F)c2)c1` [Example 67, (1S,2S)-2-(((2′,3,3′-Trifluoro-5′-isopropoxy-[1,1′-biphenyl]-4-yl)oxy)methyl)cyclopropanecarboxylic acid] showed an EC50 of 230 nM.
For `O=C(O)[C@@H]1C[C@H]1COc1ccc(-c2cc(Cl)cc(OC(F)(F)F)c2)cc1` (racemic) [Example 48, Trans-2-(((3′-chloro-5′-(trifluoromethoxy)-[1,1′-biphenyl]-4-yl)oxy)methyl)cyclopropanecarboxylic acid], the EC50 was 760 nM.
Work on `O=C(O)[C@H]1C[C@@H]1COc1ccc(-c2cc(Oc3ccccc3)ccc2F)cc1F` (single isomer, unassigned) [Example 11] yielded an EC50 of 160 nM.
`O=C(O)[C@@H]1C[C@H]1COc1ccc(-c2cc(Oc3cccc(F)c3)ccc2F)cc1F` (relative stereo) [Example 96, Trans-2-(((2′,3-difluoro-5′-(3-fluorophenoxy)-[1,1′-biphenyl]-4-yl)oxy)methyl) cyclopropanecarboxylic acid] gave an EC50 of 180 nM.
For `O=C(O)[C@@H]1C[C@H]1COc1ccc(-c2cc(Oc3ccccc3)ccc2F)cc1F` (single isomer, unassigned) [Example 10], the EC50 was 80 nM.
In the case of `O=C(O)[C@@H]1C[C@H]1CCc1ccc(-c2cccc(-n3cccn3)c2)cc1` (racemic) [Example 128, Trans-2-(2-(3′-(1H-pyrazol-1-yl)-[1,1′-biphenyl]-4-yl)ethyl) cyclopropanecarboxylic acid], the EC50 is reported as 700 nM.
For `CC(C)Oc1ccc(F)c(-c2ccc(CC[C@@H]3C[C@@H]3C(=O)O)cc2)c1` (single isomer, unassigned) [Example 17], the EC50 was 200 nM.
`COc1cc(Cl)cc(-c2ccc(CC[C@@H]3C[C@H]3C(=O)O)cc2)c1` (racemic) [Example 77, Trans-2-(2-(3′-chloro-5′-methoxy-[1,1′-biphenyl]-4-yl)ethyl) cyclopropanecarboxylic acid] was tested, and the EC50 was 2340 nM.
`O=C(O)[C@@H]1C[C@@H]1COc1ccc(-c2cc(Oc3ccccc3)ccc2F)cc1` (racemic) [Example 4, Cis-2-(((2′-fluoro-5′-phenoxy-[1,1′-biphenyl]-4-yl)oxy)methyl)cyclopropanecarboxylic acid] showed an EC50 of 470 nM.
For `CC(C)Oc1cc(F)c(F)c(-c2ccc(OC[C@@H]3C[C@H]3C(=O)O)c(F)c2)c1` (racemic) [Example 65, Trans-2-(((2′,3,3′-trifluoro-5′-isopropoxy-[1,1′-biphenyl]-4-yl)oxy)methyl)cyclopropanecarboxylic acid], the EC50 was 330 nM.
For `CC(C)Oc1ccc(F)c(-c2ccc(CC[C@]3(F)C[C@@H]3C(=O)O)cc2)c1` (racemic) [Example 40, Trans-2-fluoro-2-(2-(2′-fluoro-5′-isopropoxy-[1,1′-biphenyl]-4-yl)ethyl) cyclopropanecarboxylic acid], the EC50 was 5090 nM.
For `CC(C)Oc1ccc(F)c(-c2ccc(OC[C@@H]3C[C@H]3C(=O)O)c(F)c2)c1` (single isomer, unassigned) [Example 63], the EC50 was 180 nM.
Compound `CC(C)Oc1ccc(F)c(-c2ccc(OC[C@@H]3C[C@H]3C(=O)O)c(Cl)c2)c1` (racemic) [Example 45, Trans-2-(((3-chloro-2′-fluoro-5′-isopropoxy-[1,1′-biphenyl]-4-yl)oxy)methyl)cyclopropanecarboxylic acid] has an EC50 of 220 nM.
For `O=C(O)[C@@H]1C[C@H]1COc1ccc(-c2cc(OC(F)(F)F)ccc2Cl)cc1` (racemic) [Example 54, Trans-2-(((2′-chloro-5′-(trifluoromethoxy)-[1,1′-biphenyl]-4-yl)oxy)methyl)cyclopropanecarboxylic acid], the EC50 was 500 nM.
Work on `CC(C)Oc1ccc(F)c(-c2ccc(CO[C@@H]3C[C@H]3C(=O)O)cc2)c1` (relative stereo) [Example 37, Trans-2-((2′-fluoro-5′-isopropoxy-[1,1′-biphenyl]-4-yl)methoxy)cyclopropanecarboxylic acid] yielded an EC50 of 2650 nM.
Work on `CC(C)Oc1ccc(F)c(-c2ccc(OC[C@@H]3C[C@H]3C(=O)O)c(C(F)(F)F)c2)c1` (racemic) [Example 88, Trans-2-(((2′-fluoro-5′-isopropoxy-3-(trifluoromethyl)-[1,1′-biphenyl]-4-yl)oxy)methyl) cyclopropanecarboxylic acid] yielded an EC50 of 180 nM.
`Cc1nn(Cc2ccccc2)cc1-c1ccc(OC[C@@H]2C[C@H]2C(=O)O)cc1` (racemic) [Example 84, Trans-2-((4-(1-benzyl-3-methyl-1H-pyrazol-4-yl)phenoxy)methyl) cyclopropanecarboxylic acid] showed an EC50 of 4310 nM.
For `CC(C)Oc1ccc(F)c(-c2ccc(OC[C@H]3C[C@@H]3C(=O)O)c(F)c2)c1` (single isomer, unassigned) [Example 64], the EC50 was 290 nM.
In the case of `CC(C)Oc1cc(Cl)cc(-c2ccc(OC[C@H]3C[C@@H]3C(=O)O)c(F)c2)c1` (single isomer, unassigned) [Example 14], the EC50 is reported as 830 nM.
In the case of `O=C(O)[C@@H]1C[C@H]1COc1ccc(-c2cc(Oc3ccc(F)cc3)ccc2F)cc1` (racemic) [Example 44, Trans-2-(((2′-fluoro-5′-(4-fluorophenoxy)-[1,1′-biphenyl]-4-yl)oxy)methyl)cyclopropanecarboxylic acid], the EC50 is reported as 270 nM.
`O=C(O)[C@@H]1C[C@H]1COc1ccc(-c2cc(F)cc(Oc3ccccc3)c2)cc1` (racemic) [Example 23, Trans-2-(((3′-fluoro-5′-phenoxy-[1,1′-biphenyl]-4-yl)oxy)methyl)cyclopropanecarboxylic acid] gave an EC50 of 660 nM.
In the case of `O=C(O)[C@@H]1CC1COc1ccc(-c2cc(Oc3cccc(F)c3)cnc2Cl)cc1` (some centres unmarked) [Example 112], the EC50 is reported as 210 nM.
In the case of `O=C(O)[C@@H]1C[C@H]1COc1ccc(-c2cc(Oc3cccc(F)c3)cc(F)c2F)cc1F` (single isomer, unassigned) [Example 106], the EC50 is reported as 270 nM.
`O=C(O)[C@H]1C[C@@H]1COc1ccc(-c2cc(Oc3ccccc3)ccc2F)cc1F` (racemic) [Example 9, (Trans)-(+/−)-2-(((2′,3-difluoro-5′-phenoxy-[1,1′-biphenyl]-4-yl)oxy)methyl) cyclopropanecarboxylic acid] showed an EC50 of 80 nM.
`CC(C)Oc1ccc(F)c(-c2ccc(CC[C@]3(F)C[C@H]3C(=O)O)cc2)c1` (racemic) [Example 39, Cis-2-fluoro-2-(2-(2′-fluoro-5′-isopropoxy-[1,1′-biphenyl]-4-yl)ethyl) cyclopropanecarboxylic acid] showed an EC50 of 2020 nM.
`Cc1nn(Cc2ccc(Cl)cc2)cc1-c1ccc(OC[C@@H]2C[C@H]2C(=O)O)cc1` (racemic) [Example 85, Trans-2-((4-(1-(4-chlorobenzyl)-3-methyl-1H-pyrazol-4-yl)phenoxy)methyl) cyclopropanecarboxylic acid] showed an EC50 of 3810 nM.
In the case of `C=C(C)COc1cc(F)cc(-c2ccc(OC[C@@H]3C[C@H]3C(=O)O)cc2)c1` (racemic) [Example 19, Trans-2-(((3′-fluoro-5′-((2-methylallyl)oxy)-[1,1′-biphenyl]-4-yl)oxy)methyl) cyclopropanecarboxylic acid], the “EC50 (μM)” value is reported as “Not active”.
With `CC(C)Oc1ccc(F)c(-c2ccc(OC[C@@H]3C[C@H]3C(=O)O)cc2)c1` (single isomer, unassigned) [Example 3] the EC50 was 470 nM.
